{"source": "patent US20250000936A1", "about": "“TREATMENT OF GEOGRAPHIC ATROPHY” (Apellis Pharmaceuticals, Inc., priority 2021, published 2025)", "origin": "cited, not measured here", "data": [{"test_system": "complement activation", "conditions": "complement inhibiting activity relative to C-terminally amidated compstatin; cited from earlier work", "units": {"Activity over compstatin": "xmore"}, "values": [{"substance": "Ac-ICVYQDWGAHRCT-CONH2 [Ac-V4Y/H9A]", "Activity over compstatin": 14}, {"substance": "Ac-ICV(Bpa)QDWGAHRCT-COOH (N-acetyl, Bpa) [Ac-V4(Bpa)/H9A-OH]", "Activity over compstatin": 49}, {"substance": "H-GICV(6fW)QD(6fW)GAHRCTN-COOH (6-fluoro-Trp residues) [+G/V4(6fW)/W7(6fW)H9A+N-OH]", "Activity over compstatin": 126}, {"substance": "Ac-ICVWQD(5fW)GAHRCT-CONH2 [Ac-V4W/W7(5fW)/H9A]", "Activity over compstatin": 121}, {"substance": "Ac-ICVWQDWGAHRCdT-COOH [Ac-V4W/H9A/T13dT-OH]", "Activity over compstatin": 55}, {"substance": "Ac-ICV(1-Nal)QDWGAHRCT-COOH (N-acetyl, 1-Nal) [Ac V4(1-Nal)/H9A-OH]", "Activity over compstatin": 30}, {"substance": "Ac-ICV(2-Igl)QDWGAHRCT-COOH (N-acetyl, 2-Igl) [Ac-V42Igl/H9A-OH]", "Activity over compstatin": 37}, {"substance": "Ac-ICV(2-Nal)QDWGAHRCT-CONH2 (N-acetyl, C-amide, 2-Nal) [Ac-V4(2-Nal)/H9A]", "Activity over compstatin": 99}, {"substance": "Ac-ICVWQDWGAHRCT-CONH2 (Ac-ICVWQDWGAHRCT-NH2; cysteine pairing not given here) [Ac-V4W/H9A]", "Activity over compstatin": 45}, {"substance": "Ac-ICVDhtQDWGAHRCT-COOH [Ac-V4Dht/H9A-OH]", "Activity over compstatin": 5}, {"substance": "Ac-ICV(Bpa)QDWGAHRCT-CONH2 (N-acetyl, C-amide, Bpa) [Ac-V4(Bpa)/H9A]", "Activity over compstatin": 86}, {"substance": "Ac-ICVVQDWGHHRCT-CONH2 [Ac-compstatin]", "Activity over compstatin": 3}, {"substance": "Ac-ICV(2-Nal)QDWGAHRCT-COOH (N-acetyl, 2-Nal) [Ac V4(2-Nal)/H9A-OH]", "Activity over compstatin": 38}, {"substance": "Ac-ICV(2-Igl)QDWGAHRCT-CONH2 (N-acetyl, C-amide, 2-Igl) [Ac-V42Igl/H9A]", "Activity over compstatin": 39}]}]}
